Measurements taken from US8404692B2, “Pyrimidin-4-yl-3, 4-dihydro-2H-pyrrolo [1,2A] pyrazin-1-one compounds” (Cyclacel Limited, priority 2005, dated 2013).

Biological target: T1, aurora-A (human) (Homo sapiens, UniProt O14965)
T1 construct: purchased Upstate, Dundee, UK
T1 sequence (O14965 1-403): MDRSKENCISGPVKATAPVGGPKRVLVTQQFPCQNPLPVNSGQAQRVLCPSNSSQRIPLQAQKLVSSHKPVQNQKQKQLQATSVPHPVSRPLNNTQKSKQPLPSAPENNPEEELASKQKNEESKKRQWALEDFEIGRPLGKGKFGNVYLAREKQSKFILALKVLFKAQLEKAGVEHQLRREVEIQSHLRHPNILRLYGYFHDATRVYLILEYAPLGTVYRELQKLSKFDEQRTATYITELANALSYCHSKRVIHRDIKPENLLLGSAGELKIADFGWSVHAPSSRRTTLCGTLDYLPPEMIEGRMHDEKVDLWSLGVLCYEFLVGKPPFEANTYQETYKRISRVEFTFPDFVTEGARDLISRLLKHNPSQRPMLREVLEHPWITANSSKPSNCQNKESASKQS
Assay: Aurora-A (human) kinase assay
Assay type: biochemical
Details: read-out: Activity (Aurora A activity, IC50 grading)
Method in brief: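 Radiometric assay measuring [γ-32P] transfer from 100 μM ATP to 500 μM Kemptide by 2-5 ng active human aurora-A, pH 7.5 buffer, 30 min at 30° C. Incorporated label captured on P81 filters and counted by scintillation; IC50 from curve fitting.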

Row | Structure (SMILES) | IC50 [nM]
1 | Cc1c(-c2ccnc(Nc3cccc(OC(F)(F)F)c3)n2)c(C)n2c1C(=O)NCC2 [Example I-30, 6,8-Dimethyl-7-[2-(3-trifluoromethoxy-phenylamino)pyrimidin-4-yl]-3,4-dihydro-2H-pyrrolo[1,2-a]pyrazin-1-one] | < 10000
2 | COc1ccc(Cl)cc1Nc1nccc(-c2c(C)c3n(c2C)CCNC3=O)n1 [Example I-87, 7-[2-(5-Chloro-2-methoxy-phenylamino)-pyrimidin-4-yl]-6,8-dimethyl-3,4-dihydro-2H-pyrrolo[1,2-a]pyrazin-1-one] | < 10000
3 | CC(=O)N1CCN(c2ccc(Nc3nccc(-c4c(C)c5n(c4C)CCNC5=O)n3)cc2)CC1 [Example I-7, 7-{2-[4-(4-Acetyl-piperazin-1-yl)-phenylamino]-pyrimidin-4-yl}-6,8-dimethyl-3,4-dihydro-2H-pyrrolo[1,2-a]pyrazin-1-one] | < 1000
4 | CCN(CC)CCNS(=O)(=O)c1ccc(Nc2nccc(-c3c(C)c4n(c3C)CCNC4=O)n2)cc1C [Example I-90, N-(2-Diethylamino-ethyl)-4-[4-(6,8-dimethyl-1-oxo-1,2,3,4-tetrahydro-pyrrolo[1,2-a]pyrazin-7-yl)-pyrimidin-2-ylamino]-2-methyl-benzenesulfonamide] | < 10000
5 | Cc1c(-c2ccnc(Nc3ccc(C(F)(F)F)cc3)n2)c(C)n2c1C(=O)NCC2 [Example I-68, 6,8-Dimethyl-7-[2-(4-trifluoromethyl-phenylamino)-pyrimidin-4-yl]-3,4-dihydro-2H-pyrrolo[1,2-a]pyrazin-1-one] | < 10000
6 | COc1cc(C(=O)NC2CCN(C)CC2)ccc1Nc1nccc(-c2c(C)c3n(c2C)CCNC3=O)n1 [Example I-114, 4-[4-(6,8-Dimethyl-1-oxo-1,2,3,4-tetrahydro-pyrrolo[1,2-a]pyrazin-7-yl)-pyrimidin-2-ylamino]-3-methoxy-N-(1-methyl-piperidin-4-yl)-benzamide] | < 10000
7 | CCOC(=O)c1cnn(-c2ccc(Nc3nccc(-c4c(C)c5n(c4C)CCNC5=O)n3)cc2)c1C [Example I-81, 1-{4-[4-(6,8-Dimethyl-1-oxo-1,2,3,4-tetrahydro-pyrrolo[1,2-a]pyrazin-7-yl)-pyrimidin-2-ylamino]-phenyl}-5-methyl-1H-pyrazole-4-carboxylic acid ethyl ester] | < 1000
8 | Cc1c(-c2ccnc(Nc3ccc(F)cc3Cl)n2)c(C)n2c1C(=O)NCC2 [Example I-86, 7-[2-(2-Chloro-4-fluoro-phenylamino)-pyrimidin-4-yl]-6,8-dimethyl-3,4-dihydro-2H-pyrrolo[1,2-a]pyrazin-1-one] | < 10000
9 | Cc1c(-c2ccnc(Nc3ccccc3F)n2)c(C)n2c1C(=O)NCC2 [Example I-65, 7-[2-(2-Fluoro-phenylamino)-pyrimidin-4-yl]-6,8-dimethyl-3,4-dihydro-2H-pyrrolo[1,2-a]pyrazin-1-one] | < 1000
10 | Cc1ccc(Oc2ccc(Nc3nccc(-c4c(C)c5n(c4C)CCNC5=O)n3)cc2)cc1 [Example I-89, 6,8-Dimethyl-7-[2-(4-p-tolyloxy-phenylamino)-pyrimidin-4-yl]-3,4-dihydro-2H-pyrrolo[1,2-a]pyrazin-1-one] | < 10000
11 | Cc1c(-c2ccnc(Nc3ccc(-n4cccc4)cc3)n2)c(C)n2c1C(=O)NCC2 [Example I-74, 6,8-Dimethyl-7-[2-(4-pyrrol-1-yl-phenylamino)-pyrimidin-4-yl]-3,4-dihydro-2H-pyrrolo[1,2-a]pyrazin-1-one] | < 1000
12 | Cc1c(-c2ccnc(Nc3ccc4c(c3)OCO4)n2)c(C)n2c1C(=O)NCC2 [Example I-29, 7-[2-(Benzo-[1,3]dioxol-5-ylamino)-pyrimidin-4-yl]-6,8-dimethyl-3,4-dihydro-2H-pyrrolo[1,2-a]pyrazin-1-one] | < 1000
13 | Cc1cc(Nc2nccc(-c3c(C)c4n(c3C)CCNC4=O)n2)ccc1S(=O)(=O)N(C)CCCN(C)C [Example I-91, N-(3-Dimethylamino-propyl)-4-[4-(6,8-dimethyl-1-oxo-1,2,3,4-tetrahydro-pyrrolo[1,2-a]pyrazin-7-yl)-pyrimidin-2-ylamino]-2,N-dimethyl-benzenesulfonamide] | < 10000
14 | Cc1c(-c2ccnc(Nc3ccc(S(=O)(=O)NC(C)C)cc3)n2)c(C)n2c1C(=O)NCC2 [Example I-19, 4-[4-(6,8-Dimethyl-1-oxo-1,2,3,4-tetrahydro-pyrrolo[1,2-a]pyrazin-7-yl)-pyrimidin-2-ylamino]-N-isopropyl-benzenesulfonamide] | < 1000
15 | Cc1c(-c2ccnc(Nc3ccc(OCCN4CCOCC4)cc3)n2)c(C)n2c1C(=O)NCC2 [Example I-51, 6,8-Dimethyl-7-{2-[4-(2-morpholin-4-yl-ethoxy)-phenylamino]-pyrimidin-4-yl}-3,4-dihydro-2H-pyrrolo[1,2-a]pyrazin-1-one] | < 1000

The remaining lines, values ahead:

Row | IC50 [nM] | Structure (SMILES)
16 | < 1000 | Cc1c(-c2ccnc(Nc3cccc(CCC(=O)N(C)CCCN(C)C)c3)n2)c(C)n2c1C(=O)NCC2 [Example I-107, N-(3-Dimethylamino-propyl)-3-{3-[4-(6,8-dimethyl-1-oxo-1,2,3,4-tetrahydro-pyrrolo[1,2-a]pyrazin-7-yl)-pyrimidin-2-ylamino]-phenyl}-N-methyl-propionamide]
17 | < 1000 | Cc1c(-c2ccnc(Nc3cccc(O)c3)n2)c(C)n2c1C(=O)NCC2 [Example I-31, 7-[2-(3-Hydroxy-phenylamino)-pyrimidin-4-yl]-6,8-dimethyl-3,4-dihydro-2H-pyrrolo[1,2-a]pyrazin-1-one]
18 | < 1000 | Cc1c(-c2ccnc(Nc3cccc(CCC(=O)N4CCN(C)CC4)c3)n2)c(C)n2c1C(=O)NCC2 [Example I-110, 6,8-Dimethyl-7-(2-{3-[3-(4-methyl-piperazin-1-yl)-3-oxo-propyl]-phenylamino}-pyrimidin-4-yl)-3,4-dihydro-2H-pyrrolo[1,2-a]pyrazin-1-one]
19 | < 100 | Cc1c(-c2ccnc(Nc3ccc4c(c3)COCO4)n2)c(C)n2c1C(=O)NCC2 [Example I-45, 7-[2-(4H-Benzo[1,3]dioxin-6-ylamino)-pyrimidin-4-yl]-6,8-dimethyl-3,4-dihydro-2H-pyrrolo[1,2-a]pyrazin-1-one]
20 | < 1000 | Cc1c(-c2ccnc(Nc3ccc(-n4cncn4)cc3)n2)c(C)n2c1C(=O)NCC2 [Example I-73, 6,8-Dimethyl-7-[2-(4-[1,2,4]triazol-1-yl-phenylamino)-pyrimidin-4-yl]-3,4-dihydro-2H-pyrrolo[1,2-a]pyrazin-1-one]
21 | < 1000 | Cc1c(-c2ccnc(Nc3cccc(S(=O)(=O)N4CCOCC4)c3)n2)c(C)n2c1C(=O)NCC2 [Example I-35, 8-Dimethyl-7-{2-[3-(morpholine-4-sulfonyl)-phenylamino]-pyrimidin-4-yl}-3,4-dihydro-2H-pyrrolo[1,2-a]pyrazin-1-one]
22 | < 1000 | Cc1c(-c2ccnc(Nc3ccc(N4CCOCC4)nc3)n2)c(C)n2c1C(=O)NCC2 [Example I-13a, 6,8-Dimethyl-7-[2-(6-morpholin-4-yl-pyridin-3-ylamino)-pyrimidin-4-yl]-3,4-dihydro-2H-pyrrolo[1,2-a]pyrazin-1-one]
23 | < 100 | Cc1c(-c2ccnc(Nc3cccc(CCC(=O)O)c3)n2)c(C)n2c1C(=O)NCC2 [Example I-34, 3-{3-[4-(6,8-Dimethyl-1-oxo-1,2,3,4-tetrahydro-pyrrolo[1,2-a]pyrazin-7-yl)-pyrimidin-2-ylamino]-phenyl}-propionic acid]
24 | < 100 | Cc1c(-c2ccnc(Nc3ccc(S(=O)(=O)N4CCCCC4)cc3)n2)c(C)n2c1C(=O)NCC2 [Example I-56, 6,8-Dimethyl-7-{2-[4-(piperidine-1-sulfonyl)-phenylamino]-pyrimidin-4-yl}-dihydro-2H-pyrrolo[1,2-a]pyrazin-1-one]
25 | < 100 | Cc1nccc(-c2cccc(Nc3nccc(-c4c(C)c5n(c4C)CCN(C)C5=O)n3)c2)n1 [Example I-93, 2,6,8-Trimethyl-7-{2-[3-(2-methyl-pyrimidin-4-yl)-phenylamino]-pyrimidin-4-yl}-3,4-dihydro-2H-pyrrolo[1,2-a]pyrazin-1-one]
26 | < 100 | Cc1c(-c2ccnc(Nc3ccc(C(=O)O)cc3)n2)c(C)n2c1C(=O)NCC2 [Example I-26, 4-[4-(6,8-Dimethyl-1-oxo-1,2,3,4-tetrahydro-pyrrolo[1,2-a]pyrazin-7-yl)-pyrimidin-2-ylamino]-benzoic acid]
27 | < 100 | Cc1c(-c2ccnc(Nc3ccc(C(=O)NC4CCN(C)CC4)cc3)n2)c(C)n2c1C(=O)NCC2 [Example I-115, 4-[4-(6,8-Dimethyl-1-oxo-1,2,3,4-tetrahydro-pyrrolo[1,2-a]pyrazin-7-yl)-pyrimidin-2-ylamino]-N-(1-methyl-piperidin-4-yl)-benzamide]
28 | < 100 | Cc1c(-c2ccnc(Nc3ccc(CC(N)=O)cc3)n2)c(C)n2c1C(=O)NCC2 [Example I-102, 2-{4-[4-(6,8-Dimethyl-1-oxo-1,2,3,4-tetrahydro-pyrrolo[1,2-a]pyrazin-7-yl)-pyrimidin-2-ylamino]-phenyl}-acetamide]
29 | < 100 | COCCNC(=O)Cc1ccc(Nc2nccc(-c3c(C)c4n(c3C)CCNC4=O)n2)cc1 [Example I-96, 2-{4-[4-(6,8-Dimethyl-1-oxo-1,2,3,4-tetrahydro-pyrrolo[1,2-a]pyrazin-7-yl)-pyrimidin-2-ylamino]-phenyl}-N-(2-methoxy-ethyl)-acetamide]
30 | < 100 | Cc1c(-c2ccnc(Nc3cccc(OCC(=O)O)c3)n2)c(C)n2c1C(=O)NCC2 [Example I-41, {3-[4-(6,8-Dimethyl-1-oxo-1,2,3,4-tetrahydro-pyrrolo[1,2-a]pyrazin-7-yl)-pyrimidin-2-ylamino]-phenoxy}-acetic acid]
